Here are results for one compound from patent publication US20110129883A1, “INACTIVATION OF GENES OF THE MEP PATHWAY” (BIOAGENCY AG, priority 2001, published 2011).

Molecules are shown by their SMILES.

For this test, the system named is E. coli transformed with the synthetic operon. The class given is cell-based.

With `O=CN(O)CCCP(=O)(O)O` [fosmidomycin], the “bacterial growth under fosmidomycin” value was “at a reduced rate and died”.
